# Several values for one entry are separate records, joined by “and”; a condition that tells them apart may be missing. Equal values may be shown once.
# System: 966289-007-R4-J1-PDC complex spheroid viability
# Experiment: Anticancer human tumor 966289-007-R4-J1-PDC patient-derived pancreatic adenocarcinoma cell line growth inhibition [GQUAD]
# Settings: for viability, T/C: stronger effect = lower value
# Description: DNA G-quadruplex Stabilizer Agents in Combinations in Complex Spheroids
# A high-throughput screen of multi-cell type tumor spheroids was designed to identify active combinations of DNA G-quadruplex stabilizer agents and targeted small molecules. Complex spheroids include a stromal component modeled by human endothelial cells (HUVEC) and fibroblasts modeled by human mesenchymal stem cells (MSCs). The concentration ranges selected for each drug and investigational agent were based upon clinically achievable concentrations if the clinical Cmax of the agent was known.
# Compounds. The drugs and investigational agents: pidnarulex (CX-5461; NSC782164), APTO-253 (NSC789042), BRACO-19 (NSC847499), peposertib (NSC802822), ceralasertib (NSC780249), elimusertib (NSC800525), camonsertib (NSC841442), AZD-1390 (NSC803789), olaparib (NSC753686), talazoparib (NSC767125), ART-558 (NSC835418), sotorasib (NSC818433), MRTX-1133 (NSC836407), SN-38 (NSC673596), topotecan (NSC609699), etoposide (NSC141540), doxorubicin (NSC123127), gemcitabine (NSC613327), 5-fluorouracil (NSC19893), paclitaxel (NSC125973), vemurafenib (NSC761431), panobinostat (NSC761190), R-306465 (JNJ-16241199; NSC773264), adavosertib (NSC754352), TP-3654 (NSC805149), carboplatin (NSC241240), KSQ-4279 (NSC840948), and staurosporine (NSC755774) were obtained from the National Cancer Institute (NCI) Developmental Therapeutics Program Chemical Repository (34). The FDA-approved anticancer drug set is available from the NCI Developmental Therapeutics Program. […] The stock solutions were prepared in dimethyl sulfoxide (DMSO, Sigma-Aldrich, St. Louis, MO, cat. D2650) at 800-fold the tested concentration and stored at -70 degrees C prior to their use. All drugs and investigational agents were tested over a range starting from a high concentration at or near the clinical Cmax and decreasing in half-log increments. If the clinical Cmax for an agent had not been determined, the highest concentration tested was 10 microM.
# 2.3 Cell Culture. All cells were maintained in an incubator at 37 degrees C and 5% CO2 with 95% humidity. The PDC lines were cultured according to standard operating procedures established by the NCI PDMR. All PDCs were thawed and cultured in Matrigel-coated flasks prepared with a working solution of 1X Ham's F-12 nutrient mix, without supplementation (Invitrogen, cat. 11765054), 100 U/mL penicillin-streptomycin (Invitrogen, cat. 15140122), and 2.5% Matrigel (Corning Inc., cat. 354248) for the first three passages. The 857933-349-R-J2-PDC line was cultured in 6C/Colon 1B media, which includes advanced DMEM/F-12 (Thermo Fisher Scientific, cat. 12634028), 10 mM HEPES (Thermo Fisher Scientific, cat. 15630080), 1X GlutaMAX supplement (Thermo Fisher Scientific, cat. 35050061), 0.1 mg/mL primocin (InvivoGen, cat. ant-pm-2), 10% defined fetal bovine serum, heat inactivated (HyClone Laboratories Inc., cat. SH30070.03HI), 50% L-WRN conditioned media (ATCC, cat. CRL-3276), 1.25 mM N-Acetyl-L-cysteine (Sigma-Aldrich, cat. A9165), 10 mM nicotinamide (Sigma-Aldrich, cat. N0636), 1X B-27 supplement (Thermo Fisher Scientific, cat. 17504044), 1X N-2 supplement (Thermo Fisher Scientific, cat. 17502048), 10 microM Y-27632 dihydrochloride (Tocris Bioscience, cat. 1254), and 50 ng/mL human EGF recombinant protein (Thermo Fisher Scientific, cat. PHG0311). The 485176-168-R4-J1-PDC line was cultured in Panc media, which includes all 6C/Colon 1B media components plus 100 ng/mL human FGF-10 (Thermo Fisher Scientific, cat. 100-26), 500 nM SB-431542 (Selleckchem, cat. S1067), and gastrin (Tocris, cat. 3006).
# […]
# 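Note: spheroids exposed to the agents for seven days before readout.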
# 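Throughout, for viability, T/C: percent viability relative to DMSO vehicle control wells taken as 100%.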
smiles,measurement,setting,value
Cc1[nH]c2ccccc2c1CCNCc1ccc(/C=C/C(=O)NO)cc1 + Cc1[nH]c2ccc(F)cc2c1-c1nc2c3cccnc3c3ncccc3c2[nH]1,IC50,"curve of first compound, second compound 0.0316 µM",0.076 µM
same,IC50,"curve of first compound, second compound 0.1 µM",0.0928 µM
same,IC50,"curve of first compound, second compound 0.316 µM",0.0958 µM
same,IC50,"curve of first compound, second compound 1 µM",0.127 µM
same,IC50,"curve of first compound, second compound 3.16 µM",0.0797 µM
same,IC50,"curve of first compound, second compound 10 µM",0.104 µM
same,"viability, T/C","second compound 0.0316 µM, first compound 0.000999 µM",110%
same,"viability, T/C","second compound 0.0316 µM, first compound 0.00316 µM",104%
same,"viability, T/C","second compound 0.0316 µM, first compound 0.00999 µM",107%
same,"viability, T/C","second compound 0.0316 µM, first compound 0.0316 µM",103%
same,"viability, T/C","second compound 0.0316 µM, first compound 0.0999 µM",33.6%
same,"viability, T/C","second compound 0.0316 µM, first compound 0.316 µM",4.95%
same,"viability, T/C","second compound 0.1 µM, first compound 0.000999 µM",111%
same,"viability, T/C","second compound 0.1 µM, first compound 0.00316 µM",109%
same,"viability, T/C","second compound 0.1 µM, first compound 0.00999 µM",111%
same,"viability, T/C","second compound 0.1 µM, first compound 0.0316 µM",105%
same,"viability, T/C","second compound 0.1 µM, first compound 0.0999 µM",46.2%
same,"viability, T/C","second compound 0.1 µM, first compound 0.316 µM",5.29%
same,"viability, T/C","second compound 0.316 µM, first compound 0.000999 µM",106%
same,"viability, T/C","second compound 0.316 µM, first compound 0.00316 µM",108%
same,"viability, T/C","second compound 0.316 µM, first compound 0.00999 µM",113%
same,"viability, T/C","second compound 0.316 µM, first compound 0.0316 µM",107%
same,"viability, T/C","second compound 0.316 µM, first compound 0.0999 µM",47.8%
same,"viability, T/C","second compound 0.316 µM, first compound 0.316 µM",6.15%
same,"viability, T/C","second compound 1 µM, first compound 0.000999 µM",98.5%
same,"viability, T/C","second compound 1 µM, first compound 0.00316 µM",103%
same,"viability, T/C","second compound 1 µM, first compound 0.00999 µM",111%
same,"viability, T/C","second compound 1 µM, first compound 0.0316 µM",108%
same,"viability, T/C","second compound 1 µM, first compound 0.0999 µM",61.5%
same,"viability, T/C","second compound 1 µM, first compound 0.316 µM",5.78%
same,"viability, T/C","second compound 3.16 µM, first compound 0.000999 µM",107%
same,"viability, T/C","second compound 3.16 µM, first compound 0.00316 µM",114%
same,"viability, T/C","second compound 3.16 µM, first compound 0.00999 µM",117%
same,"viability, T/C","second compound 3.16 µM, first compound 0.0316 µM",110%
same,"viability, T/C","second compound 3.16 µM, first compound 0.0999 µM",35.4%
same,"viability, T/C","second compound 3.16 µM, first compound 0.316 µM",5.51%
same,"viability, T/C","second compound 10 µM, first compound 0.000999 µM",110%
same,"viability, T/C","second compound 10 µM, first compound 0.00316 µM",104%
same,"viability, T/C","second compound 10 µM, first compound 0.00999 µM",114%
same,"viability, T/C","second compound 10 µM, first compound 0.0316 µM",93.5%
same,"viability, T/C","second compound 10 µM, first compound 0.0999 µM",52.2%
same,"viability, T/C","second compound 10 µM, first compound 0.316 µM",5.13%
CC[C@@]1(O)C(=O)OCc2c1cc1n(c2=O)Cc2cc3c(CN(C)C)c(O)ccc3nc2-1,"viability, T/C",compound 0.000999 µM,88.3% and 105% and 97.2%
same,"viability, T/C",compound 0.00316 µM,92.3% and 95.7% and 100%
same,"viability, T/C",compound 0.00999 µM,108% and 105% and 110%
same,"viability, T/C",compound 0.0316 µM,74.9% and 90.5% and 50.4%
same,"viability, T/C",compound 0.0999 µM,0.78% and 1.86% and 0.73%
same,"viability, T/C",compound 0.316 µM,0.62% and 0.47% and 0.41%
same,IC50,curve of compound,0.0465 µM and 0.0535 µM and 0.0319 µM
COc1cc(C2c3cc4c(cc3C(OC3OC5COC(C)OC5C(O)C3O)C3COC(=O)C23)OCO4)cc(OC)c1O (stereo not drawn),"viability, T/C",compound 0.0316 µM,106% (2×) and 108%
same,"viability, T/C",compound 0.1 µM,108% and 111% and 110%
same,"viability, T/C",compound 0.316 µM,41.2% and 40.8% and 50.3%
same,"viability, T/C",compound 1 µM,5.14% and 5.7% and 8.75%
same,"viability, T/C",compound 3.16 µM,1.52% and 0.98% and 2.8%
same,"viability, T/C",compound 10 µM,0.83% and 0.61% and 0.86%
same,IC50,curve of compound,0.271 µM and 0.32 µM
C#Cc1c(F)ccc2cc(O)cc(-c3ncc4c(N5CC6CCC(C5)N6)nc(OCC56CCCN5CC(F)C6)nc4c3F)c12 (stereo not drawn),"viability, T/C",compound 0.0316 µM,97.1% and 95.7%
same,"viability, T/C",compound 0.1 µM,112% and 91.4%
same,"viability, T/C",compound 0.316 µM,104% and 100%
same,"viability, T/C",compound 1 µM,102% and 97.3%
same,"viability, T/C",compound 3.16 µM,108% and 98.6%
same,"viability, T/C",compound 10 µM,113% and 95.9%
same,IC50,curve of compound,> 10 µM
